Reference: patent US20260297109A1, “COMPOUNDS AS SUMO ACTIVATING ENZYME INHIBITORS” (WIGEN BIOMEDICINE TECHNOLOGY (SHANGHAI) CO., LTD., priority 2022, published 2026)

Target: T1, SAE (Homo sapiens, UniProt Q9UBT2)
T1 construct: endogenous in cells; host or cells: HCT116
T1 sequence (Q9UBT2 1-640): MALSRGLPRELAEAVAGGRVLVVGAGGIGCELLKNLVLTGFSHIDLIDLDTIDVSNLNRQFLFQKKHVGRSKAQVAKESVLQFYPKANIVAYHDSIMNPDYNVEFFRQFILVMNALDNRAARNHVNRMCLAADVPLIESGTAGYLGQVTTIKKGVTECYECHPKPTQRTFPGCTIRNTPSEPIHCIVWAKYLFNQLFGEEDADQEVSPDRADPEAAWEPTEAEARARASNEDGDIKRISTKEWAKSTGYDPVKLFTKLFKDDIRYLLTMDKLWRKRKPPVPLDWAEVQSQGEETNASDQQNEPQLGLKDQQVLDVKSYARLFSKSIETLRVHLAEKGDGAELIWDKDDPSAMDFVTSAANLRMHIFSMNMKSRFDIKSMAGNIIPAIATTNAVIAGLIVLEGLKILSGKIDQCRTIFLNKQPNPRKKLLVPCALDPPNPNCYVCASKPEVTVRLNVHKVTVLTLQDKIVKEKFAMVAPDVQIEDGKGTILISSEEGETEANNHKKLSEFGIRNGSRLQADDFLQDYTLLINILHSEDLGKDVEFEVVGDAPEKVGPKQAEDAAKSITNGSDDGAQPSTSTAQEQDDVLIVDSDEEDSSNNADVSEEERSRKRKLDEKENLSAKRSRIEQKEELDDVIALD
T1 sequence (Q9UBE0 1-346): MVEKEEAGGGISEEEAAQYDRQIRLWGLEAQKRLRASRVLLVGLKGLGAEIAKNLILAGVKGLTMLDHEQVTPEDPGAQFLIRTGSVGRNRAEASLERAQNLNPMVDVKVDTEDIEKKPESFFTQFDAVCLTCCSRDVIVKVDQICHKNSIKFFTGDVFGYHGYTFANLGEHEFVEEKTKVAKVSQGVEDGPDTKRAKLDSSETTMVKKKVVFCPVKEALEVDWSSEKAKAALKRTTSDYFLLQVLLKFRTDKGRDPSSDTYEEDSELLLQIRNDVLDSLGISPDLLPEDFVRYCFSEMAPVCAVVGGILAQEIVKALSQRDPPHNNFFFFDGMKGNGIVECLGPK
Assay: SUMO IF: in vitro inhibitory activity assay against SAE in HCT116 cells (SUMO-2/3 immunofluorescence)
Assay type: cell-based
Conditions: class symbols, 6 h at 37° C.
In short: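 SUMO-2/3 immunofluorescence (18H8 primary 1:400, FITC secondary 1:300) was read after 6 h compound exposure of HCT116 cells at 37 °C. Inhibition rate and IC50 derive from signal relative to DMSO-treated wells.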

Row | Compound | IC50
1 | Cc1sc(C(=O)c2cncnc2N[C@H]2C[C@H](O)[C@@H](COS(N)(=O)=O)[C@@H]2F)cc1[C@@H]1OCCc2ccc(Cl)cc21 [Compound 988] | 50 to 200 nM
2 | Cc1sc(C(=O)c2cncnc2N[C@H]2C[C@H](O)[C@@H](COS(N)(=O)=O)[C@@H]2F)cc1[C@H]1OCCc2ccc(Cl)cc21 [Compound 989] | > 200 nM
3 | Cc1sc(C(=O)c2cncnc2N[C@H]2C[C@H](O)[C@@H](CCS(N)(=O)=O)[C@@H]2F)cc1C1NCCc2ccc(Cl)cc21 (stereo partly drawn) [Compound 990] | > 200 nM
4 | Cc1sc(C(=O)c2cncnc2N[C@H]2C[C@H](O)[C@@H](CCS(N)(=O)=O)[C@@H]2F)cc1[C@@H]1NCCc2ccc(Cl)cc21 [Compound 991] | 50 to 200 nM
5 | Cc1sc(C(=O)c2cncnc2N[C@H]2C[C@H](O)[C@@H](CCS(N)(=O)=O)[C@@H]2F)cc1[C@H]1NCCc2ccc(Cl)cc21 [Compound 992] | > 200 nM
6 | CC1CNC2(CCCc3sc(C(=O)c4cncnc4N[C@H]4C[C@H](O)[C@@H](COS(N)(=O)=O)[C@@H]4F)cc32)c2cc(Cl)ccc21 (stereo partly drawn) [Compound 1020] | 50 to 200 nM
7 | CC1CN[C@@]2(CCCc3sc(C(=O)c4cncnc4N[C@H]4C[C@H](O)[C@@H](COS(N)(=O)=O)[C@@H]4F)cc32)c2cc(Cl)ccc21 (stereo partly drawn) [Compound 1021] | > 200 nM
8 | CC1CN[C@]2(CCCc3sc(C(=O)c4cncnc4N[C@H]4C[C@H](O)[C@@H](COS(N)(=O)=O)[C@@H]4F)cc32)c2cc(Cl)ccc21 (stereo partly drawn) [Compound 1022] | ≤ 50 nM
9 | CC1Cc2ccc(Cl)cc2C2(CCCc3sc(C(=O)c4cncnc4N[C@H]4C[C@H](O)[C@@H](COS(N)(=O)=O)[C@@H]4F)cc32)N1 (stereo partly drawn) [Compound 1023] | 50 to 200 nM
10 | CC1Cc2ccc(Cl)cc2[C@]2(CCCc3sc(C(=O)c4cncnc4N[C@H]4C[C@H](O)[C@@H](COS(N)(=O)=O)[C@@H]4F)cc32)N1 (stereo partly drawn) [Compound 1024] | > 200 nM
11 | CC1Cc2ccc(Cl)cc2[C@@]2(CCCc3sc(C(=O)c4cncnc4N[C@H]4C[C@H](O)[C@@H](COS(N)(=O)=O)[C@@H]4F)cc32)N1 (stereo partly drawn) [Compound 1025] | 50 to 200 nM
12 | CC1(C)CNC2(CCCc3sc(C(=O)c4cncnc4N[C@H]4C[C@H](O)[C@@H](COS(N)(=O)=O)[C@@H]4F)cc32)c2cc(Cl)ccc21 (stereo partly drawn) [Compound 1026] | 50 to 200 nM
13 | CC1(C)CN[C@@]2(CCCc3sc(C(=O)c4cncnc4N[C@H]4C[C@H](O)[C@@H](COS(N)(=O)=O)[C@@H]4F)cc32)c2cc(Cl)ccc21 [Compound 1027] | > 200 nM
14 | CC1(C)CN[C@]2(CCCc3sc(C(=O)c4cncnc4N[C@H]4C[C@H](O)[C@@H](COS(N)(=O)=O)[C@@H]4F)cc32)c2cc(Cl)ccc21 [Compound 1028] | 50 to 200 nM
15 | CC1(C)Cc2ccc(Cl)cc2C2(CCCc3sc(C(=O)c4cncnc4N[C@H]4C[C@H](O)[C@@H](COS(N)(=O)=O)[C@@H]4F)cc32)N1 (stereo partly drawn) [Compound 1029] | 50 to 200 nM
16 | CC1(C)Cc2ccc(Cl)cc2[C@]2(CCCc3sc(C(=O)c4cncnc4N[C@H]4C[C@H](O)[C@@H](COS(N)(=O)=O)[C@@H]4F)cc32)N1 [Compound 1030] | > 200 nM
17 | CC1(C)Cc2ccc(Cl)cc2[C@@]2(CCCc3sc(C(=O)c4cncnc4N[C@H]4C[C@H](O)[C@@H](COS(N)(=O)=O)[C@@H]4F)cc32)N1 [Compound 1031] | 50 to 200 nM
18 | CC1CNC2(C=Cc3sc(C(=O)c4cncnc4N[C@H]4C[C@H](O)[C@@H](COS(N)(=O)=O)[C@@H]4F)cc32)c2cc(Cl)ccc21 (stereo partly drawn) [Compound 1053] | 50 to 200 nM
19 | CC1CN[C@@]2(C=Cc3sc(C(=O)c4cncnc4N[C@H]4C[C@H](O)[C@@H](COS(N)(=O)=O)[C@@H]4F)cc32)c2cc(Cl)ccc21 (stereo partly drawn) [Compound 1054] | > 200 nM
20 | CC1CN[C@]2(C=Cc3sc(C(=O)c4cncnc4N[C@H]4C[C@H](O)[C@@H](COS(N)(=O)=O)[C@@H]4F)cc32)c2cc(Cl)ccc21 (stereo partly drawn) [Compound 1055] | ≤ 50 nM
21 | CC1Cc2ccc(Cl)cc2C2(C=Cc3sc(C(=O)c4cncnc4N[C@H]4C[C@H](O)[C@@H](COS(N)(=O)=O)[C@@H]4F)cc32)N1 (stereo partly drawn) [Compound 1056] | 50 to 200 nM
